Columns and labels:
[1] = system: FGFR2IIIb-expressing Ba/F3 cells; assay: ADCC assay with human PBMC effectors, LDH release (Example 3); type: cell-based; details: E/T 25:1, 16 hours
Protocol: Ba/F3 FGFR2IIIb-expressing target cells were produced as follows. Ba/F3 cells acquired from Leibniz-Institut DSMZ-Deutsche Sammlung von Mikroorganismen and Zellkulturen GmbH (DSMZ, cat #ACC300, Braunschweig, Germany) were maintained in RPMI (Mediatech, cat #10-041-CV, Manassas, Va.), supplemented with 10% fetal bovine serum (Mediatech, cat #35-010-CV), 1 ng/mL murine IL-3 (Peprotech, cat #213-13, Rocky Hill, N.J.), 1×BME (Invitrogen, cat #1047574, Grand Island, N.Y.), and 1× Penicillin-streptomycin (Mediatech cat #30-002-C1). […]
ADCC assays were conducted using effector cells from 3 independent donors on 3 different days. […] Cytotoxicity was determined by quantifying LDH release as per the manufacturer's instructions (CytoTox Non Radioactive Cytotoxicity Assay, Promega, Madison, Wis.).
(§1) Maximal lysis was determined in the presence of 5% Triton X-100, and spontaneous release was determined in the absence of antibody. Percentage of specific lysis was calculated as follows, as a percentage of maximal lysis less spontaneous release: (experimental−spontaneous release)/(maximal−spontaneous release)×100=% specific lysis

KATO III cells = assay: as above; type: cell-based; details: E/T 25:1, 16 hours; data not shown
Protocol: (§2) MFM-223 cells were obtained from the Health Protection Agency, UK; OCUM-2M cells were obtained from Osaka City University, Osaka, Japan; and KATO III cells were obtained from ATCC, Rockville, Md. All cells were cultured using standard methods. Freshly isolated PMBC from healthy donors were obtained from AllCells, Emeryville, Calif.
(§3) ADCC assays were conducted using effector cells from 3 independent donors on 3 different days. ADCC assay testing was performed using freshly isolated human PBMCs as effector cells at an effector to target (E/T) cell ratio of 25:1. The target cells were incubated for 16 hours in the presence of effectors and increasing concentrations of antibody. The ADCC assay was validated using 2 positive control antibodies, HERCEPTIN® on SKOV-3 target cells and RITUXIN® on Raji target cells. A fully human IgG1 negative control antibody (Eureka Therapeutics, Catalog ET901, Emeryville, Calif.) was used for non-specific cell cytotoxicity. Cytotoxicity was determined by quantifying LDH release as per the manufacturer's instructions (CytoTox Non Radioactive Cytotoxicity Assay, Promega, Madison, Wis.).
as §1

MFM 223 cells = assay: as above; type: cell-based; details: data not shown
Protocol: as §2, §3, §1

OCUM-2M cells [2] = assay: as above; type: cell-based; details: data not shown
Protocol: as §2, §3, §1

OCUM-2M cells [3] = assay: ADCC assay, EC50 by curve fitting (Example 5); type: cell-based, human; details: E:T 25:1, 16 hours, percent specific lysis
Protocol: (§4) Ba/F3 FGFR2IIIb-expressing target cells were generated as described before. OCUM-2M cells were obtained from Osaka City University, Osaka, Japan. All cells were cultured using standard methods. Freshly isolated PMBC from healthy donors were obtained from AllCells, Emeryville, Calif.
(§5) ADCC assays were conducted using freshly isolated human PBMCs as effector cells at an effector to target (E:T) cell ratio of 25:1. The target cells were incubated for 16 hours in the presence of effectors and increasing concentrations of antibody. All conditions were tested in triplicate. Cytotoxicity was determined by quantifying LDH release as per the manufacturer's recommendations (Promega's CytoTox Non-Radioactive Cytotoxicity Assay). For the OCUM-2M cells, maximal lysis was determined in the presence of 5% Triton X-100, and spontaneous release was determined in the absence of antibody. Percentage of specific lysis was calculated as a percentage of maximal lysis less spontaneous release, as follows: (experimental−spontaneous release)/(maximal−spontaneous release)×100=% specific lysis. GraphPad software curve-fitting analysis was used to obtain EC50 values.

[4] = system: Ba/F3 FGFR2IIIb-expressing target cells; assay: ADCC assay, EC50 by curve fitting (Example 5); type: cell-based; details: FIG. 9
Protocol: as §4, §5

[5] = system: OCUM-2M human gastric cancer xenograft with FGFR2 amplification; assay: OCUM-2M gastric cancer xenograft model; type: in vivo, CB17 SCID mice; details: for tumor response: 10 mg/kg intraperitoneal twice per week
Description: Six week old female CB17 SCID mice were purchased from Charles River Laboratories (Wilmington, Mass.) and were acclimated for 1 week before the start of the study. Human gastric carcinoma cell line OCUM-2M or breast carcinoma cell line MFM-223 were used as the tumor models. OCUM-2M was purchased from Public University Corporation Osaka City University (OCU, Osaka, Japan), and MFM-223 was purchased from Culture Collections, Public Health England (98050130, HPA Culture Collections, Salisbury, UK). The cells were cultured for up to three passages in complete growth medium to expand for implantation. OCUM-2M and MFM-223 cells were cultured in Dulbecco's […] (DMEM) and Minimum Essential Medium (MEM), respectively. All medium was supplemented with 10% heat-inactivated Fetal Bovine Serum (FBS), 2 mM L-Glutamine, and Penicillin-Streptomycin solution. Cells were grown at 37° C. in a humidified atmosphere with 5% CO2.
When the cultured cells reached 85-90% confluence, cells were harvested and resuspended in cold Ca^2+ and Mg^2+ free phosphate buffered saline (PBS) containing 50% Matrigel (BD BioSciences, San Jose, Calif.). OCUM-2M cells were implanted subcutaneously over the right flank of the mice at 5×10^5 cells/100 μl/mouse. MFM-223 cells were implanted subcutaneously over the right flank of the mice at 5×10^5 cells/100 μl/mouse, and 0.72 mg 90-day release […] estradiol pellets (Innovative Research of America, Sarasota, Fla.) were inoculated subcutaneously into the right flank. Mice were monitored twice weekly following cell implantation for tumor growth. Tumor size was measured according to the formula: Tumor size (mm^3)=([…])/2. When MFM-223 tumors reached 80 mm^3 mice were sorted and randomized (n=10), and treatment was initiated. For OCUM-2M tumors, single therapy with anti-FGFR2b was initiated once tumors reached an average size of 100 mm^3, and combination therapy was initiated once tumors reached an average size of 250 mm^3.
Chemotherapeutic agents were administered via intraperitoneal injection twice per week at 12 mg/kg for paclitaxel, 2.3 mg/kg for fluorouracil (5-FU), and 33 mg/kg for cisplatin. Upon initiation of therapy, tumor sizes were measured in each mouse twice weekly. The length and width of each tumor was measured using calipers and the tumor size calculated according to the formula above. Mice were euthanized when the subcutaneous tumor volumes exceeded 2000 mm^3 or when the tumors became excessively necrotic.
Comparisons of tumor volume […] determined to be statistically significant if P<0.05. P-values were calculated using unpaired, two-tailed t-test analyses of the calculated tumor volumes on the final day upon which tumors were measured.

[6] = system: MFM-223 human breast cancer xenograft; assay: MFM-223 breast cancer xenograft model; type: in vivo, CB17 SCID mice; details: 5 mg/kg
Description: Six week old female CB17 SCID mice were purchased from Charles River Laboratories (Wilmington, Mass.) and were acclimated for 1 week before the start of the study. Human gastric carcinoma cell line OCUM-2M or breast carcinoma cell line MFM-223 were used as the tumor models. OCUM-2M was purchased from Public University Corporation Osaka City University (OCU, Osaka, Japan), and MFM-223 was purchased from Culture Collections, Public Health England (98050130, HPA Culture Collections, Salisbury, UK). The cells were cultured for up to three passages in complete growth medium to expand for implantation. […]
When the cultured cells reached 85-90% confluence, cells were harvested and resuspended in cold Ca^2+ and Mg^2+ free phosphate buffered saline (PBS) containing 50% Matrigel (BD BioSciences, San Jose, Calif.). […] Mice were monitored twice weekly following cell implantation for tumor growth. Tumor size was measured according to the formula: Tumor size (mm^3)=(width (mm)×length (mm)^2)/2. […]
Chemotherapeutic agents were administered via intraperitoneal injection twice per week at 12 mg/kg for paclitaxel, 2.3 mg/kg for fluorouracil (5-FU), and 33 mg/kg for cisplatin. Upon initiation of therapy, tumor sizes were measured in each mouse twice weekly. The length and width of each tumor was measured using calipers and the tumor size calculated according to the formula above. […]

Substance | specific lysis compared with αFGFR2bF [1] | ADCC activity compared with αFGFR2bF (KATO III cells) | ADCC activity compared with αFGFR2bF (MFM 223 cells; E/T 25:1, 16 hours) | maximal specific lysis compared with αFGFR2bF (MFM 223 cells) | ADCC activity compared with αFGFR2bF (OCUM-2M cells [2]; E/T 25:1, 16 hours) | maximal specific lysis compared with αFGFR2bF (OCUM-2M cells [2]) | EC50 (ADCC) (OCUM-2M cells [3]) [µg/mL] | ADCC potency compared with αFGFR2bF [4] | final tumor size compared with αFGFR2bF ([5]; 3 mg/kg) | tumor growth compared with αFGFR2bF ([5]; 3 mg/kg) | tumor regression and durability compared with αFGFR2bF ([5]; 3 mg/kg) | durability of response compared with αFGFR2bF ([5]; 10 mg/kg) | final tumor size compared with αFGFR2bF ([5]; 10 mg/kg) | tumor response [5] | final tumor size ([5]; 1 to 5 mg/kg, higher doses more potent) | tumor growth suppression ([5]; 2, 1.5, and 1 mg/kg) | tumor growth suppression ([5]; 3 and 5 mg/kg) | tumor growth ([5]; all doses: 1, 1.5, 2, 3, or 5 mg/kg, start at about 100 mm^3) | final tumor size compared to albumin control [6] | tumor growth compared to albumin control ([6]; start at about 80 mm^3)
αFGFR2bA: afucosylated humanized anti-FGFR2IIIb monoclonal antibody produced in Potelligent CHOK1SV cells; heavy chain SEQ ID NO: 2, light chain SEQ ID NO: 3 | greater specific lysis | greater ADCC activity at lower concentrations | greater ADCC activity at lower concentrations | comparable | greater ADCC activity at lower concentrations | comparable | 0.005 | higher potency | notably reduced final OCUM-2M tumor size | reduced tumor growth | greater tumor regression and durable response | more durable response | significantly reduced final OCUM-2M tumor size | immediate tumor regression | reduced final OCUM-2M tumor size | reduced growth suppression | greatest suppression and durable response | inhibited tumor growth | significantly reduced final MFM-223 tumor size | dramatically reduced growth of MFM-223 tumors
αFGFR2bF: fucosylated anti-FGFR2IIIb humanized antibody with the same amino acid sequences as αFGFR2bA, produced in CHOK1SV cells [reference compound] |  |  |  |  |  |  | 0.03 |  |  |  |  |  |  | immediate tumor regression |  |  |  |  |  | 

Reference: patent US11235059B2, “Afucosylated anti-FGFR2IIIB antibodies” (Five Prime Therapeutics, Inc., priority 2013, dated 2022)
